Laboratory results published in paper PMC9061853, “Luminescent bis(benzo[d]thiazolyl)quinoxaline: facile synthesis, nucleic acid and protein BSA interaction, live-cell imaging, biopharmaceutical research and cancer theranostic application” (RSC Advances, 2019).

Tests used:
[1] = MTT cytotoxicity assay, Caco-2; assay type: cell-based, human; conditions: human, Caco-2, ratio of IC50 for HEK-293 to IC50 for Caco-2; read-out: SF (selectivity factor) Caco-2
Source text: (§1) In vitro cytotoxic activities (MTT assay):
(§2) The basic detection of cytotoxicity of anticancer compounds in vitro is MTT assay. The MTT proliferation assay is based on the reduction of the yellow MTT tetrazolium salt (3-[4,5-dimethylthiazol-2-yl]-2,5diphenyltetrazolium bromide) by mitochondrial dehydrogenases to form a purple MTT formazan crystals in viable cells. Synthesized compounds (7a-g) were prior dissolved in 0.1% DMSO and then serial dilution with medium and used in the experiment. Three different types of cancer cell lines were used in this experiment i.e., human Epitheloid Cervix Carcinoma (HeLa), human colon cancer cell line (Caco-2) and one normal kidney cell (HEK-293) were used in the assay. The cells were harvested at the log phase and it is cell counted using haemocytometer. Approximately 1 × 10^3 cells per well were seeded using all the cell lines. They were cultured in 100 μL of a DMEM media in 96-well plates and incubated at 37 °C for 24 hours under a 5% CO2 atmosphere. The cells were then washed with 1X PBS buffer and fresh media was added to the cells. The cells were then treated with different concentrations of the drugs (0.65-150 µM) in the volume of […] /well.
(§3) The control wells contains the same cell count of 1 × 10^3 cells per well of 100 μL medium containing 0.1% DMSO. After 24 h (for HeLa cell and HEK-293) and 72 h (for Caco-2), the medium was discarded and it is washed with 1X PBS and it was incubated with 100 µl of MTT reagent (1 mg/ml) for 4 h at 37°C.
(§4) Then the 96 well plate was placed on the shaker for 10 min and subsequently the absorbance was recorded by the ELISA reader at λ = 490 nm. The experiments were performed in […]
(§5) triplicate. […]

Caco-2 = assay: MTT cytotoxicity assay, Caco-2; assay type: cell-based, human; conditions: Homo sapiens, Caco-2; 72 h incubation
Source text: as §1, §2, §3, §4, §5

HeLa = assay: MTT cytotoxicity assay, HeLa; assay type: cell-based, human; conditions: for IC50: Homo sapiens, HeLa, 24 h incubation; for SF (selectivity factor) HeLa: ratio of IC50 for HEK-293 to IC50 for HeLa
Procedure: (§6) Cytotoxicity studies were performed for all the synthesized quinoxaline compounds (7a–7g) using standard 3-(4,5-dimethylthiazol-2-yl)-2,5-diphenyltetrazolium bromide (MTT) assay beside a panel of cancer cell lines such as human epithelioid cervix carcinoma (HeLa), human colorectal adenocarcinoma cell line (Caco-2) and one normal human embryonic kidney cells (HEK-293) in triplicates (Table 3). […] It is noteworthy to mention that Compound 7a and 7g presented best cytoselectivity in HeLa and Caco-2 cell lines respectively. […]
as §1
as §2, with “[…]. Cisplatin has been used as a standard positive control drug. The control wells contains the same cell count of 1 × 10^3 cells per well of 100 μL medium containing 0.1% DMSO. After 24 h (for HeLa cell and HEK-293) and 72 h (for Caco-2), the medium was discarded and it is washed with 1X PBS and it was incubated with 100 µl of MTT reagent (1 mg/ml) for 4 h at 37°C.” for “/well.”
as §4, §5

HEK-293 = assay: MTT cytotoxicity assay, HEK-293 normal cells; assay type: cell-based, human; conditions: Homo sapiens, HEK293; 24 h incubation
Procedure: as §6, §1
as §2, with “[…]. Cisplatin has been used as a standard positive control drug. The control wells contains the same cell count of 1 × 10^3 cells per well of 100 μL medium containing 0.1% DMSO. After 24 h (for HeLa cell and HEK-293) and 72 h (for Caco-2), the medium was discarded and it is washed with 1X PBS and it was incubated with 100 µl of MTT reagent (1 mg/ml) for 4 h at 37°C.” for “/well.”
as §4, §5

[2] = Fluorescence quantum yield in water; assay type: physicochemical; conditions: 298 K, quinine sulphate as standard
Procedure: To know the absorption and emission behaviour of these synthesized compounds (7a–g), a standard concentration (3 × 10^−6 mol l^−1) in water has been used. In UV-vis spectra, λmax of all these compounds are observed at 320–330 nm due to π–π* transition (Fig. S1a ^†). The corresponding emission peaks are observed at 400–500 nm (Fig. S1b ^†). The emission of quantum yield (Φ) was calculated for all of the compounds (7a–g) using eqn (1) (Table S1 ^†). […]
2.6.2. Fluorescence study:
To know the emission property of all the synthesized complexes (7a-g), an initial investigation was performed using spectrofluorometric method in water by using absorption maximum as their excitation energy. Fluorescence quantum yield (Ф) of all the prepared compounds performed in water solution were calculated by employing the comparative William's method which involves the use of well-characterized standard with the known quantum yield value. Quinine sulphate was used as reference fluorophore excited at 350 nm and emission at 452 nm, quantum yield (ФR) = 0.50 in 1N H2SO4. The gradients of the plots are proportional to the quantum yield (Ф) of the studied system. The data obtained and quantum yield value calculated according to the equation (2): […]
Where, φ = Quantum yield, I = Peak Area, OD = absorbance at λmax, η = Refractive index of solvent and reference. Here, we have used Quinine Sulphate as a standard for calculating emission of quantum yield. […]

Structure (SMILES) | selectivity ratio [1] | IC50 (Caco-2) [µM] | IC50 (HeLa) [µM] | SF (selectivity factor) HeLa (HeLa) | IC50 (HEK-293) [µM] | Φ, emission quantum yield [2] | melting point [°C]
Clc1cc2nc(COc3ccccc3-c3nc4ccccc4s3)c(COc3ccccc3-c3nc4ccccc4s3)nc2cc1Cl [Compound 7e] | > 9 | 20.9 ± 1.6 | 38.9 ± 0.1 | >5.1 | > 200 | 0.04 | 145 to 150
COc1ccc2nc(COc3ccccc3-c3nc4ccccc4s3)c(COc3ccccc3-c3nc4ccccc4s3)nc2c1 [Compound 7g, 2,2'-((((6-methoxyquinoxaline-2,3-diyl)bis(methylene))bis(oxy))bis(2,1-phenylene))bis(benzo[d]thiazole)] | > 9 | 20.8 ± 1.6 | 36.8 ± 0.2 | >5.4 | > 200 | 0.013 | 155 to 160
